The source of these data is patent US20080194552A1, “Aminopyrimidine Derivatives With Tie2 Inhibiting Activity” (ASTRAZENECA AB, priority 2005, published 2008).

The experiment deals with T1, Tie2 receptor tyrosine kinase (Homo sapiens, UniProt Q02763).
T1 construct: one can use natural cell lines or primary cells which are known to express the receptor of choice; endogenous in cells; host or cells: EA.hy926/B3 cells (HUVEC named as an alternative)
Put plainly: Cellular Tie2 autophosphorylation assay. The format is cell-based. Conditions: whole cells, e.g. Ang1 ligand stimulated EA.hy926/B3 cells; read-out: IC50 Inhibition of autophosphorylation of Tie2 receptor tyrosine kinase. The text has this:
The following assay can be used to measure the effects of the compounds of the present invention as inhibitors of Tie2 autophosphorylation in whole cells.
Cellular Tie2 Autophosphorylation Assay
This assay is based on measuring the ability of compounds to inhibit autophosphorylation of the Tie2 receptor which normally leads to the production of “activated” receptor that in turn initiates the particular signal transduction pathways associated with the receptor function.
Autophosphorylation can be achieved by a number of means. It is known that expression of recombinant kinase domains in baculoviral systems can lead to the production of phosphorylated and activated receptor. […]
Naturally if the ligand is available one can use natural cell lines or primary cells which are known to express the receptor of choice and simply stimulate with ligand to achieve ligand induced phosphorylation. The ability of compounds to inhibit autophosphorylation of the Tie2 receptor, which is expressed for example in EA.hy926/B3 cells (supplied by J. McLean/B. Tuchi, Univ. of N. Carolina at Chapel Hill, CB-4100, 300 Bynum Hall, Chapel Hill, N.C. 27599-41000, USA) or primary HUVEC (human umbilical vein endothelial cells—available from various commercial sources), can measured by this assay. […]

T1 sequence (Q02763 23-1124): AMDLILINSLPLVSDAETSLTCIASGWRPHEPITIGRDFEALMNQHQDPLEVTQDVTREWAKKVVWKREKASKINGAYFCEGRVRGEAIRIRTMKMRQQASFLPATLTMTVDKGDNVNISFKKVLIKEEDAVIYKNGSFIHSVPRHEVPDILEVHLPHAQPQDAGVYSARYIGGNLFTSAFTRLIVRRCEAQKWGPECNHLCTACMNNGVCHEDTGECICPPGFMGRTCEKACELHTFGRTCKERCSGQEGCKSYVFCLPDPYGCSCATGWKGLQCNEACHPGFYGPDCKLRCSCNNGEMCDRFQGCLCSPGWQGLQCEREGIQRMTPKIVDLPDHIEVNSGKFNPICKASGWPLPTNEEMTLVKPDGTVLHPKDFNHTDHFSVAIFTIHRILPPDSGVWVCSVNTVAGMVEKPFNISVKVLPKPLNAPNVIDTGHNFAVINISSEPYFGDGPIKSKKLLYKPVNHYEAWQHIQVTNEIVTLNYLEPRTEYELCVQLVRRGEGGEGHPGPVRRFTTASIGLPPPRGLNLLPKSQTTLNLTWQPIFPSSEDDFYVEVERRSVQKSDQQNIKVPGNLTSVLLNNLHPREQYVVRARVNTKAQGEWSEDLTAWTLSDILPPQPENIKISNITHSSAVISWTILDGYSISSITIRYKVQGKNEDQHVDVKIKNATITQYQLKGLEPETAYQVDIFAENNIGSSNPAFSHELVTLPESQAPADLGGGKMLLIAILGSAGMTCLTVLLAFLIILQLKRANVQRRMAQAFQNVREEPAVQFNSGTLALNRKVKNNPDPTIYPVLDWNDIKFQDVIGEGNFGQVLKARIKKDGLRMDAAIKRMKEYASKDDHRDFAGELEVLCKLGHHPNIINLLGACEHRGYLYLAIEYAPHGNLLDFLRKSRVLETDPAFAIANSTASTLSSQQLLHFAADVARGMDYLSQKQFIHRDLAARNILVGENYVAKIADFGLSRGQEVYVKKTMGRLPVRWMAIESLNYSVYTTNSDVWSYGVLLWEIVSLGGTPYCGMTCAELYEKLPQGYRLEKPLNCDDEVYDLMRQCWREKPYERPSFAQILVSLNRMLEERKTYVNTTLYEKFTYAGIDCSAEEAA

Regarding `Nc1ncc(C#Cc2ccc(C(=O)Nc3cc(C(F)(F)F)ccc3F)s2)cn1` [Example 1, 5-[(2-Aminopyrimidin-5-yl)ethynyl]-N-[2-fluoro-5-(trifluoromethyl)phenyl]thiophene-2-carboxamide], the IC50 amounted to 16 nM.

On to `Nc1ncc(C#Cc2csc(C(=O)Nc3cc(C(F)(F)F)ccc3F)c2)cn1` [Example 2, 4-[(2-Aminopyrimidin-5-yl)ethynyl]-N-[2-fluoro-5-(trifluoromethyl)phenyl]thiophene-2-carboxamide], for which the IC50 turned out to be 26 nM.

The term IC50 denotes the concentration that inhibits the measured activity by half.
